According to PubChem BioAssay AID212 (DTP/NCI, 2004):
Values joined by “and” are separate entries in the source; they are usually repeats but may differ in a detail not shown here. Equal entries are not always repeated. Results filed as inconclusive are left out.

Tested on: BDF1 mice, colon carcinoma 38 sc, T/C %
Assay: NCI In Vivo Anticancer Drug Screen. Data for tumor model Colon Carcinoma 38 (subcutaneous) in B6D2F1 (BDF1) mice
Outline: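 Mice with transplanted tumors are treated with compound or vehicle. Survival or tumor size is then measured in both groups. The ratio of treated to control gives the reported figure.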

[1] = endpoint: median tumor weight (est.), dose: 12.5 mg/kg/injection, schedule: Q07DX002 (ip), vehicle: saline with Tween-80, higher = larger tumour
[2] = endpoint: median tumor weight (est.), dose: 12.5 mg/kg/injection, schedule: Q07DX002 (ip), vehicle: saline, higher = larger tumour
[3] = endpoint: median tumor weight (est.), dose: 25.0 mg/kg/injection, schedule: Q07DX002 (ip), vehicle: saline, higher = larger tumour
[4] = endpoint: median tumor weight (est.), dose: 50.0 mg/kg/injection, schedule: Q07DX002 (ip), vehicle: saline with Tween-80, higher = larger tumour
[5] = endpoint: median tumor weight (est.), dose: 100.0 mg/kg/injection, schedule: Q07DX002 (ip), vehicle: saline with Tween-80, higher = larger tumour
[6] = endpoint: median tumor weight (est.), dose: 25.0 mg/kg/injection, schedule: Q07DX002 (ip), vehicle: saline with Tween-80, higher = larger tumour
[7] = endpoint: median tumor weight (est.), dose: 3.12 mg/kg/injection, schedule: Q07DX002 (ip), vehicle: saline with Tween-80, higher = larger tumour
[8] = endpoint: median tumor weight (est.), dose: 6.25 mg/kg/injection, schedule: Q07DX002 (ip), vehicle: saline with Tween-80, higher = larger tumour

## COc1ccc(C2C(=O)c3ccc(OC)cc3OC2c2ccccc2)cc1 (stereo not given)
endpoint: median tumor weight (est.), dose: 25.0 mg/kg/injection, schedule: Q07DX002 (ip), vehicle: other, higher = larger tumour
  T/C: 84 % of control
endpoint: median tumor weight (est.), dose: 50.0 mg/kg/injection, schedule: Q07DX002 (ip), vehicle: other, higher = larger tumour
  T/C: 56 % of control
endpoint: median tumor weight (est.), dose: 100.0 mg/kg/injection, schedule: Q07DX002 (ip), vehicle: other, higher = larger tumour
  T/C: 47 % of control
endpoint: median tumor weight (est.), dose: 200.0 mg/kg/injection, schedule: Q07DX002 (ip), vehicle: other, higher = larger tumour
  T/C: 50 % of control
endpoint: median tumor weight (est.), dose: 400.0 mg/kg/injection, schedule: Q07DX002 (ip), vehicle: other, higher = larger tumour
  T/C: 61 % of control

## NC(=O)Nc1cc(NC(N)=O)cc(N(CCCl)CCCl)c1
endpoint: median tumor weight (est.), dose: 10.0 mg/kg/injection, schedule: Q07DX002 (ip), vehicle: Klucel (hydroxypropylcellulose) (HPC), higher = larger tumour
  T/C: 89 % of control
endpoint: median tumor weight (est.), dose: 20.0 mg/kg/injection, schedule: Q07DX002 (ip), vehicle: Klucel (hydroxypropylcellulose) (HPC), higher = larger tumour
  T/C: 68 % of control
endpoint: median tumor weight (est.), dose: 40.0 mg/kg/injection, schedule: Q07DX002 (ip), vehicle: Klucel (hydroxypropylcellulose) (HPC), higher = larger tumour
  T/C: 96 % of control

## CC(C)=CCNc1ncnc2c1ncn2C1OC(CO)C(O)C1O (stereo not given)
[1]
  T/C: 61 % of control
[2]
  T/C: 102 % of control
[3]
  T/C: 89 % of control
[4]
  T/C: 96 % of control
[5]
  T/C: 44 % of control
endpoint: median tumor weight (est.), dose: 100.0 mg/kg/injection, schedule: Q07DX002 (ip), vehicle: saline, higher = larger tumour
  T/C: 97 % of control
endpoint: median tumor weight (est.), dose: 200.0 mg/kg/injection, schedule: Q07DX002 (ip), vehicle: saline with Tween-80, higher = larger tumour
  T/C: 75 % of control

## Nc1ccc(S(=O)(=O)Nc2cnc3c(Cl)cccc3n2)cc1
endpoint: median tumor weight (est.), dose: 250.0 mg/kg/injection, schedule: Q07DX002 (ip), vehicle: DMSO, higher = larger tumour
  T/C: 82 % of control

## Cc1cn(C2CC(F)C(CO)O2)c(=O)[nH]c1=O (stereo not given)
endpoint: median tumor weight (est.), dose: 50.0 mg/kg/injection, schedule: Q01DX001 (ip), vehicle: Klucel (hydroxypropylcellulose) (HPC), higher = larger tumour
  T/C: 204 % of control
endpoint: median tumor weight (est.), dose: 100.0 mg/kg/injection, schedule: Q01DX001 (ip), vehicle: Klucel (hydroxypropylcellulose) (HPC), higher = larger tumour
  T/C: 193 % of control
endpoint: median tumor weight (est.), dose: 200.0 mg/kg/injection, schedule: Q01DX001 (ip), vehicle: Klucel (hydroxypropylcellulose) (HPC), higher = larger tumour
  T/C: 182 % of control
endpoint: median tumor weight (est.), dose: 200.0 mg/kg/injection, schedule: Q07DX002 (ip), vehicle: saline, higher = larger tumour
  T/C: 119 % of control
endpoint: median tumor weight (est.), dose: 400.0 mg/kg/injection, schedule: Q01DX001 (ip), vehicle: Klucel (hydroxypropylcellulose) (HPC), higher = larger tumour
  T/C: 165 % of control
endpoint: median tumor weight (est.), dose: 400.0 mg/kg/injection, schedule: Q07DX002 (ip), vehicle: saline, higher = larger tumour
  T/C: 103 % of control
endpoint: median tumor weight (est.), dose: 800.0 mg/kg/injection, schedule: Q07DX002 (ip), vehicle: saline, higher = larger tumour
  T/C: 117 % of control
endpoint: median tumor weight (est.), dose: 1600.0 mg/kg/injection, schedule: Q07DX002 (ip), vehicle: saline, higher = larger tumour
  T/C: 100 % of control

## CCC(c1ccc(OC(=O)Cc2ccc(N(CCCl)CCCl)cc2)cc1)C(CC)c1ccc(OC(=O)Cc2ccc(N(CCCl)CCCl)cc2)cc1 (stereo not given)
endpoint: median tumor weight (est.), dose: 9.38 mg/kg/injection, schedule: Q07DX002 (ip), vehicle: saline with Tween-80, higher = larger tumour
  T/C: 120 % of control
endpoint: median tumor weight (est.), dose: 18.7 mg/kg/injection, schedule: Q07DX002 (ip), vehicle: saline with Tween-80, higher = larger tumour
  T/C: 92 % of control
endpoint: median tumor weight (est.), dose: 37.5 mg/kg/injection, schedule: Q07DX002 (ip), vehicle: saline with Tween-80, higher = larger tumour
  T/C: 33 % of control
endpoint: median tumor weight (est.), dose: 75.0 mg/kg/injection, schedule: Q07DX002 (ip), vehicle: saline with Tween-80, higher = larger tumour
  T/C: 46 % of control
endpoint: median tumor weight (est.), dose: 300.0 mg/kg/injection, schedule: Q07DX002 (ip), vehicle: saline with Tween-80, higher = larger tumour
  T/C: 51 % of control and 61 % of control
endpoint: median tumor weight (est.), dose: 600.0 mg/kg/injection, schedule: Q07DX002 (ip), vehicle: saline with Tween-80, higher = larger tumour
  T/C: 51 % of control and 61 % of control

## COc1ccc2c(NCCCCCCNc3c4ccccc4nc4cc(OC)ccc34)c3ccccc3nc2c1
endpoint: median tumor weight (est.), dose: 0.31 mg/kg/injection, schedule: Q07DX002 (ip), vehicle: lactic acid, higher = larger tumour
  T/C: 54 % of control
endpoint: median tumor weight (est.), dose: 0.32 mg/kg/injection, schedule: Q07DX002 (ip), vehicle: lactic acid, higher = larger tumour
  T/C: 72 % of control

## CCOC(=O)c1ccc(NC(=O)Nc2nncs2)cc1
endpoint: median tumor weight (est.), dose: 12.5 mg/kg/injection, schedule: Q07DX002 (ip), vehicle: distilled water + Tween-80, higher = larger tumour
  T/C: 194 % of control
endpoint: median tumor weight (est.), dose: 25.0 mg/kg/injection, schedule: Q07DX002 (ip), vehicle: distilled water + Tween-80, higher = larger tumour
  T/C: 90 % of control
endpoint: median tumor weight (est.), dose: 50.0 mg/kg/injection, schedule: Q07DX002 (ip), vehicle: distilled water + Tween-80, higher = larger tumour
  T/C: 94 % of control

## Nc1ccc(Cn2ccc3c4c(N)nc(N)nc4ccc32)cc1
endpoint: median tumor weight (est.), dose: 1.25 mg/kg/injection, schedule: Q07DX002 (ip), vehicle: saline with Tween-80, higher = larger tumour
  T/C: 90 % of control
endpoint: median tumor weight (est.), dose: 2.5 mg/kg/injection, schedule: Q07DX002 (ip), vehicle: saline with Tween-80, higher = larger tumour
  T/C: 93 % of control and 106 % of control
endpoint: median tumor weight (est.), dose: 40.0 mg/kg/injection, schedule: Q07DX002 (ip), vehicle: saline with Tween-80, higher = larger tumour
  T/C: 59 % of control

## C/C=C1\C[C@@H]2C(OC)Nc3cc(O)c(OC)cc3C(=O)N2C1 (stereo not given in full)
endpoint: median tumor weight (est.), dose: 0.06 mg/kg/injection, schedule: Q07DX002 (ip), vehicle: saline, higher = larger tumour
  T/C: 121 % of control
endpoint: median tumor weight (est.), dose: 0.12 mg/kg/injection, schedule: Q07DX002 (ip), vehicle: saline, higher = larger tumour
  T/C: 98 % of control
endpoint: median tumor weight (est.), dose: 0.12 mg/kg/injection, schedule: Q07DX002 (ip), vehicle: suspension in saline, higher = larger tumour
  T/C: 122 % of control
endpoint: median tumor weight (est.), dose: 0.25 mg/kg/injection, schedule: Q07DX002 (ip), vehicle: saline, higher = larger tumour
  T/C: 102 % of control
endpoint: median tumor weight (est.), dose: 0.25 mg/kg/injection, schedule: Q07DX002 (ip), vehicle: suspension in saline, higher = larger tumour
  T/C: 108 % of control
endpoint: median tumor weight (est.), dose: 0.5 mg/kg/injection, schedule: Q07DX002 (ip), vehicle: saline, higher = larger tumour
  T/C: 102 % of control
endpoint: median tumor weight (est.), dose: 0.5 mg/kg/injection, schedule: Q07DX002 (ip), vehicle: suspension in saline, higher = larger tumour
  T/C: 166 % of control
endpoint: median tumor weight (est.), dose: 1.0 mg/kg/injection, schedule: Q07DX002 (ip), vehicle: saline, higher = larger tumour
  T/C: 105 % of control
endpoint: median tumor weight (est.), dose: 1.0 mg/kg/injection, schedule: Q07DX002 (ip), vehicle: suspension in saline, higher = larger tumour
  T/C: 84 % of control

## CC(=O)C1(O)Cc2c(O)c3c(c(O)c2C(OC2CC(N)C(O)C(C)O2)C1)C(=O)c1ccccc1C3=O (stereo not given)
endpoint: median survival time, dose: 1.4 mg/kg/injection, schedule: Q07DX002 (iv), vehicle: saline, higher = longer survival
  T/C: 118 % of control
endpoint: median tumor weight (est.), dose: 0.37 mg/kg/injection, schedule: Q07DX002 (ip), vehicle: saline, higher = larger tumour
  T/C: 66 % of control
endpoint: median tumor weight (est.), dose: 0.75 mg/kg/injection, schedule: Q07DX002 (ip), vehicle: saline, higher = larger tumour
  T/C: 67 % of control

## OCCN1CCN(CC/C=C2/c3ccccc3Sc3ccc(C(F)(F)F)cc32)CC1
endpoint: median tumor weight (est.), dose: 1.56 mg/kg/injection, schedule: Q07DX002 (ip), vehicle: saline, higher = larger tumour
  T/C: 110 % of control
endpoint: median tumor weight (est.), dose: 3.12 mg/kg/injection, schedule: Q07DX002 (ip), vehicle: saline, higher = larger tumour
  T/C: 121 % of control
endpoint: median tumor weight (est.), dose: 6.25 mg/kg/injection, schedule: Q07DX002 (ip), vehicle: saline, higher = larger tumour
  T/C: 100 % of control
[2]
  T/C: 95 % of control
[3]
  T/C: 120 % of control
endpoint: median tumor weight (est.), dose: 50.0 mg/kg/injection, schedule: Q07DX002 (ip), vehicle: saline, higher = larger tumour
  T/C: 68 % of control

## CC(/C=C/c1ccccc1)=Nc1ccccc1
[6]
  T/C: 40 % of control
[4]
  T/C: 110 % of control
[5]
  T/C: 92 % of control
endpoint: median tumor weight (est.), dose: 400.0 mg/kg/injection, schedule: Q07DX002 (ip), vehicle: saline with Tween-80, higher = larger tumour
  T/C: 185 % of control

## Cc1c2ccccc2cc2cccc[n+]12
endpoint: median tumor weight (est.), dose: 10.0 mg/kg/injection, schedule: Q07DX002 (ip), vehicle: saline, higher = larger tumour
  T/C: 87 % of control and 96 % of control
endpoint: median tumor weight (est.), dose: 20.0 mg/kg/injection, schedule: Q07DX002 (ip), vehicle: saline, higher = larger tumour
  T/C: 77 % of control
endpoint: median tumor weight (est.), dose: 40.0 mg/kg/injection, schedule: Q07DX002 (ip), vehicle: saline, higher = larger tumour
  T/C: 112 % of control and 94 % of control
endpoint: median tumor weight (est.), dose: 80.0 mg/kg/injection, schedule: Q07DX002 (ip), vehicle: saline, higher = larger tumour
  T/C: 109 % of control

## COc1cc(NCc2ccc3nc(N)nc(N)c3c2C)cc(OC)c1OC (tested in a mixture with another compound)
endpoint: median tumor weight (est.), dose: 105.0 mg/kg/injection, schedule: Q07DX002 (ip), vehicle: water, higher = larger tumour
  T/C: 86 % of control
endpoint: median tumor weight (est.), dose: 157.0 mg/kg/injection, schedule: Q07DX002 (ip), vehicle: water, higher = larger tumour
  T/C: 100 % of control
endpoint: median tumor weight (est.), dose: 236.0 mg/kg/injection, schedule: Q07DX002 (ip), vehicle: water, higher = larger tumour
  T/C: 75 % of control

## O=[n+]1c2ccccc2n([O-])c2ccccc21.[Cl][Ni][Cl]
[7]
  T/C: 89 % of control
[8]
  T/C: 111 % of control
[1]
  T/C: 89 % of control
[6]
  T/C: 97 % of control

## CCCCCCCC(=O)[O][Hg][CH2]C1COC([CH2][Hg][O]C(=O)CCCCCCC)CO1 (stereo not given)
[7]
  T/C: 76 % of control and 97 % of control
[8]
  T/C: 101 % of control
[6]
  T/C: 108 % of control and 105 % of control
[5]
  T/C: 81 % of control

## ClC1=C(Cl)C(Cl)=C(Cl)C1=Cc1ccccc1
endpoint: median tumor weight (est.), dose: 0.78 mg/kg/injection, schedule: Q07DX002 (ip), vehicle: saline with Tween-80, higher = larger tumour
  T/C: 119 % of control
endpoint: median tumor weight (est.), dose: 1.56 mg/kg/injection, schedule: Q07DX002 (ip), vehicle: saline with Tween-80, higher = larger tumour
  T/C: 95 % of control
[8]
  T/C: 114 % of control
[1]
  T/C: 114 % of control
[6]
  T/C: 58 % of control
